Source: publication PMC5856786, “A DHODH inhibitor increases p53 synthesis and enhances tumor cell killing by p53 degradation blockage” (Nature Communications, 2018)

Legend:
U2OS cells [1] = experiment: Annexin V/PI apoptosis flow cytometry; type: cell-based; details: HZ05 72 h, washed, nutlin-3a 48 h
Method: Fig. 7 HZ05 increases p53 levels in S-phase cells. a U2OS cells were treated with DMSO (vehicle) or HZ05 (1 μM) for 72 h. The upper left panel is a representative dot plot showing the gating strategy for cells expressing high p53 levels (blue: HZ05 treated and red: DMSO treated). […] A representative histogram of the fluorescence intensity of FITC-p53 in S-phase cells is shown in the lower right panel. Bar graphs show the average of three independent experiments. Unpaired t-test was employed to assess statistical significance using GraphPad Prism version 7 (****p < 0.0001 and ***p < 0.001). b U2OS cells were pretreated with HZ05 for 72 h, washed with medium containing DMSO or nutlin-3a, and then provided with fresh medium containing DMSO or nutlin-3a. After an additional 48 h, Annexin V and PI staining was analyzed by flow cytometry. The average of two independent experiments ± SD is shown. c Hypothetical model describing the combination of DHODH inhibition with mdm2 antagonists. […] Inhibition of p53 degradation in the form of an mdm2 antagonist leads to death of cells in S-phase
For the detection of apoptotic cells, the Annexin V-FITC Apoptosis detection kit (Ab#14085) was used with analysis conducted using FlowJo software V10.2.

U2OS cells [2] = experiment: PI flow cytometry, sub-G1 cells, U2OS; type: cell-based; details: DMSO 72 h + 48 h, 2 μM nutlin-3a last 48 h
Method: (§1) Cell cycle distribution analysis was performed on a Becton Dickinson FACScan flow cytometer or FACSCalibur (BD Biosciences) following staining with propidium iodide (PI) or dual labeling with BrdU and PI[36]. These assays were analyzed using CellQuest Pro (BD Biosciences).

MV411 cells = experiment: PI flow cytometry, sub-G1 cells, MV411; type: cell-based; details: DMSO 72 h + 48 h, 2 μM nutlin-3a last 48 h
Method: as §1

[3] = Pharmacokinetic study, nutlin-3a single or co-administered with (R)-HZ05; type: in vivo, NOD-SCID mice; details: mice; nutlin-3a 50 mg kg-1 oral + (R)-HZ05 75 mg kg-1 s.c.
Method: collected from the retro-orbital plexus of three mice per group per time point at the following times: pre-dose, 0.08, 0.25, 0.5, 1, 2, 4, 8, and 24 h. Samples were collected into tubes with 20 % potassium-EDTA solution. Plasma was separated at 4000 rpm for 10 minutes at 4 °C and stored at -70 °C until analysis. 25 µL of study sample or spiked plasma calibration standards were added to individual tubes followed by 100 µL of Glipizide at 500 ng mL-1 as an internal standard. Samples were centrifuged at 4000 rpm at 4 °C for 10 minutes. 100 µL of cleared supernatant was transferred to 96-well plates and analyzed using a Waters ACQUITY UPLC connected to an AB Sciex API 4000 QTRAP in MRM mode with positive electrospray ionization with an ion spray voltage of 5500 V. The mobile phase was A: 0.1 % formic acid in acetonitrile and B: 0.1 % formic acid in water through a phenomenex Kinetex EVO C18 (5 µm, 100 × 4.6 mm) kept at 45 °C. […]
Samples were centrifuged at 4000 rpm at 4 °C for 10 minutes. 100 µL of cleared supernatant was transferred to 96-well plates and analyzed using a Waters ACQUITY UPLC connected to an AB Sciex API 4000 QTRAP in MRM mode with positive electrospray ionization with an ion spray voltage of 5500 V. The mobile phase was A: 0.1 % formic acid in acetonitrile and B: 0.1 % formic acid in water through a phenomenex Kinetex EVO C18 (5 µm, 100 × 4.6 mm) kept at 45 °C. […]

ARN8 xenograft = experiment: ARN8 subcutaneous xenograft; type: in vivo; details: ARN8 xenograft; (R)-HZ05 75 mg/kg q.d. s.c. or nutlin-3a 50 mg/kg b.i.d. orally
Method: All animal xenograft experiments were approved by the Norwegian Animal Research Authority and conducted according to The European Convention for the Protection of Vertebrates Used for Scientific Purposes. […] The health status and weight of the mice were monitored daily and they were randomized in a non-blinded manner into 4 groups when tumor volumes reached 30–40 mm^3. […] Tumor volumes were measured every second day by a digital caliper using the following ellipsoid formula: Volume = π (length × width × height)/6.
To determine the efficacy of (R)-HZ05 in combination with nutlin-3a, 4 groups of NSG mice (n = 8 per group) were subcutaneously injected in the flank region with a single 100 μL injection of 2 × 10^6 ARN8 cells in a solution of PBS:Matrigel (volume ratio 3:1). Treatment was initiated when tumors reached ~50 mm^3. The maximum tolerated dose for this combination of drugs was previously determined for the strain we used. The endpoint of the experiment was determined by the tumor size ([…]) weight loss, and general condition of the mice according to The Norwegian Animal Research Authority.

HNDF cells = experiment: PI flow cytometry, sub-G1 cells, HNDF; type: cell-based, human; details: DMSO 72 h + 48 h, 2 μM nutlin-3a last 48 h
Method: as §1

ARN8 cells = experiment: PI flow cytometry, sub-G1 cells, ARN8; type: cell-based, human; details: ARN8 72 h
Method: as §1

## COc1ccc(C2=N[C@@H](c3ccc(Cl)cc3)[C@@H](c3ccc(Cl)cc3)N2C(=O)N2CCNC(=O)C2)c(OC(C)C)c1 [nutlin-3a, reference compound]
U2OS cells [1]
  effect of nutlin-3a after HZ05 pre-treatment and wash-out: triggered cell death
U2OS cells [2]
  sub-G1 cells: 1.1%
MV411 cells
  sub-G1 cells: 37.2%
[3]
  half-life on co-administration with (R)-HZ05: not prolonged
ARN8 xenograft
  xenograft tumor growth, single agent: ineffective
HNDF cells
  sub-G1 cells: 1.2%
ARN8 cells; HZ05 0 nM + nutlin-3a 5 µM
  DMSO control subtracted effect (cells in sub-G1): 0.05
ARN8 cells; HZ05 0 nM + nutlin-3a 10 µM
  DMSO control subtracted effect (cells in sub-G1): 0.07
ARN8 cells; HZ05 0 nM + nutlin-3a 15 µM
  DMSO control subtracted effect (cells in sub-G1): 0.12
ARN8 cells; HZ05 0 nM + nutlin-3a […]
  DMSO control subtracted effect (cells in sub-G1): 0.10
ARN8 cells; nutlin-3a 1 μM
  sub-G1 cells: 0.8%
ARN8 cells; nutlin-3a 2.5 μM
  sub-G1 cells: 1.59%
ARN8 cells; nutlin-3a 5 μM
  sub-G1 cells: 3.52%
